According to patent US9464084B2, “P2X7 modulators” (Janssen Pharmaceutica NV, priority 2013, dated 2016):

Assays:
P2X7 [1] = target: T1, P2X7 (Homo sapiens (Human), UniProt Q99572); experiment: Ca2+ flux (FLIPR) in 1321N1 cells expressing recombinant human P2X7 channel; type: cell-based; settings: 250 μM BzATP;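 note: Calcium-4 dye-loaded cells exposed to compound for 30 min before agonist addition, fluorescence change read 180 s after agonist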
P2X7 [2] = target: T1, P2X7; experiment: P2X7 antagonism in human PBMCs (LPS + Bz-ATP induced IL-1β release, ELISA); type: cell-based; settings: LPS 30 ng/ml, Bz-ATP 0.5 mM; for PBMC 10 μM (% control): compound 10 μM; for PBMC 1 μM (% control): compound 1 μM;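 for all read-outs here: PBMCs from donor human blood, with a further 1.5 h incubation of the cells in the assay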
rat P2X7 = rat P2X7 (Rattus norvegicus (Rat), UniProt Q64663); experiment: Ca2+ flux (FLIPR) in 1321N1 cells expressing recombinant rat P2X7 channel; type: cell-based; settings: 250 μM BzATP;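 note: Calcium-4 dye fluorescence change read 180 s after agonist addition, following 30 min cell preincubation with test compound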
rat P2X7, sequence (Q64663 whole entry): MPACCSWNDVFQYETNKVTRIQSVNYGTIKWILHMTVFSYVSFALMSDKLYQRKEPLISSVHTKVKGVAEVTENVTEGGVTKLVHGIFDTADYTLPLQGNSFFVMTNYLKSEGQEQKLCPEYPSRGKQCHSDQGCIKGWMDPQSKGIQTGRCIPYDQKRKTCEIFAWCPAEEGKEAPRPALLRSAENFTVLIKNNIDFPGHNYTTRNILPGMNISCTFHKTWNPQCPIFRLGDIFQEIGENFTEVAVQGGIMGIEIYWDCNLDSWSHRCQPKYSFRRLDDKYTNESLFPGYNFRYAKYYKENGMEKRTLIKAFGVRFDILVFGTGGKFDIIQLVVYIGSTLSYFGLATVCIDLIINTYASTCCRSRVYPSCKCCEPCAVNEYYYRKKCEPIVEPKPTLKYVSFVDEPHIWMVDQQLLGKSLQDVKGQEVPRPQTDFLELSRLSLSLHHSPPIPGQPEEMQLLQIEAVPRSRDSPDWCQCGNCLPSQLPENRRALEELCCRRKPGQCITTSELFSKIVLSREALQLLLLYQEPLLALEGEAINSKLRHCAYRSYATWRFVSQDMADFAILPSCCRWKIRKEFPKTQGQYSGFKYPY

P2X7 [3] = target: T1, P2X7; experiment: Radioligand binding, tritiated A-804598, human P2X7-1321N1 cell membranes; settings: 1 hour at 4° C.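 Note: ki obtained from the binding IC50 after correction for tracer concentration and tracer affinity.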
Procedure: On the day of the experiment, cell membrane preparations were made according to standard published methods. […] The assay was terminated by filtration (GF/B filters pre-soaked with 0.3% PEI) and washed with washing buffer (Tris-HCl 50 mM). The IC50 generated in the binding assay was corrected for tracer concentration and affinity of the tracer to derive at the affinity (Ki) of the test compounds.

T1 sequence (Q99572 whole entry): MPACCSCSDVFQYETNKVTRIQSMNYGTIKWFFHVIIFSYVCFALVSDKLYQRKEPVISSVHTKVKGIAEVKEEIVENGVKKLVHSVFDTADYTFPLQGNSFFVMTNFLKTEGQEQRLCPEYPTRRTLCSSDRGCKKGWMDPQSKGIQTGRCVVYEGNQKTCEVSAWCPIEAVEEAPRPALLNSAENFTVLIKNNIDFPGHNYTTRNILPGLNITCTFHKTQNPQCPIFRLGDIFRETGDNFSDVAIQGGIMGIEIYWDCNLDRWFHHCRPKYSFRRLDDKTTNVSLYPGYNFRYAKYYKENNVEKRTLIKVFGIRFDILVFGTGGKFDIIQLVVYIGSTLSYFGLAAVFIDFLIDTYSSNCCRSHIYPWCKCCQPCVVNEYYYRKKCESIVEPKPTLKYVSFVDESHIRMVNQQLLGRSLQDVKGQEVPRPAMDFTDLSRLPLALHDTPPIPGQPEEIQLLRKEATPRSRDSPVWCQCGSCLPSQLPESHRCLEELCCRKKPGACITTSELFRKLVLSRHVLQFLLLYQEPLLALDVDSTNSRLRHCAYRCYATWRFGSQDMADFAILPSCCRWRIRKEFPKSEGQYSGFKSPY

Cc1c(C(=O)N2CCc3c(nnn3-c3cnccn3)C2C)cccc1C(F)(F)F (stereo not drawn) [Example 278, (4-methyl-1-(pyrazin-2-yl)-6,7-dihydro-1H-[1,2,3]triazolo[4,5-c]pyridin-5(4H)-yl)(2-methyl-3-(trifluoromethyl)phenyl)methanone]
IC50 (P2X7 [1]): 7.2 nM | PBMC 10 μM (% control) (P2X7 [2]): −19.5 % control | IC50 (rat P2X7): 92.3 nM | Ki (P2X7 [3]): 12.6 nM

O=C(c1cccc(C(F)(F)F)c1F)N1CCc2c(nnn2-c2cnccn2)C1 [Example 69, 5-{[2-Fluoro-3-(trifluoromethyl)phenyl]carbonyl}-1-pyrazin-2-yl-4,5,6,7-tetrahydro-1H-[1,2,3]triazolo[4,5-c]pyridine]
IC50 (P2X7 [1]): 106 nM | PBMC 10 μM (% control) (P2X7 [2]): 6.8 % control | IC50 (rat P2X7): 1460 nM | Ki (P2X7 [3]): 14.1 nM

CCOC(=O)C1c2ncn(-c3cnccn3)c2CCN1C(=O)c1cccc(Cl)c1Cl (stereo not drawn) [Example 29, Ethyl 5-[(2,3-dichlorophenyl)carbonyl]-1-pyrazin-2-yl-4,5,6,7-tetrahydro-1H-imidazo[4,5-c]pyridine-4-carboxylate]
IC50 (P2X7 [1]): 79.8 nM | PBMC 1 μM (% control) (P2X7 [2]): 34.7 % control | IC50 (rat P2X7): 2070 nM | Ki (P2X7 [3]): 38 nM

O=C(c1cccc(C(F)(F)F)c1Cl)N1CCc2c(nnn2-c2ccccc2)C1 [Example 61, 5-{[2-Chloro-3-(trifluoromethyl)phenyl]carbonyl}-1-phenyl-4,5,6,7-tetrahydro-1H-[1,2,3]triazolo[4,5-c]pyridine]
IC50 (P2X7 [1]): 4.7 nM | PBMC 1 μM (% control) (P2X7 [2]): −0.1 % control | IC50 (rat P2X7): 1400 nM | Ki (P2X7 [3]): 38.9 nM

O=C(c1ccc(Cl)cc1F)N1CCc2c(nnn2-c2ncccn2)C1 [Example 280, (4-chloro-2-fluorophenyl)(1-(pyrimidin-2-yl)-6,7-dihydro-1H-[1,2,3]triazolo[4,5-c]pyridin-5(4H)-yl)methanone]
IC50 (P2X7 [1]): 568 nM | PBMC 10 μM (% control) (P2X7 [2]): 3.4 % control | IC50 (rat P2X7): 1230 nM | Ki (P2X7 [3]): 63.1 nM

CC1c2nnn(-c3cnccn3)c2CCN1C(=O)c1ccc(Cl)cc1Cl (stereo not drawn) [Example 279, (2,4-dichlorophenyl)(4-methyl-1-(pyrazin-2-yl)-6,7-dihydro-1H-[1,2,3]triazolo[4,5-c]pyridin-5(4H)-yl)methanone]
IC50 (P2X7 [1]): 8.6 nM | PBMC 10 μM (% control) (P2X7 [2]): −16.9 % control | IC50 (rat P2X7): 438 nM | Ki (P2X7 [3]): 11.5 nM

O=C(c1cccc(C(F)(F)F)c1Cl)N1C=Cc2c(nnn2-c2cnccn2)C1 [Example 89, 5-{[2-Chloro-3-(trifluoromethyl)phenyl]carbonyl}-1-pyrazin-2-yl-4,5-dihydro-1H-[1,2,3]triazolo[4,5-c]pyridine]
IC50 (P2X7 [1]): 5.5 nM | PBMC 1 μM (% control) (P2X7 [2]): −1.5 % control | IC50 (rat P2X7): 908 nM | Ki (P2X7 [3]): 15.8 nM

CC1Cc2c(-c3ccn[nH]3)n[nH]c2CN1C(=O)c1cccc(C(F)(F)F)c1Cl (stereo not drawn) [Example 267, (2-chloro-3-(trifluoromethyl)phenyl)(5-methyl-3-(1H-pyrazol-5-yl)-4,5-dihydro-1H-pyrazolo[3,4-c]pyridin-6(7H)-yl)methanone]
IC50 (P2X7 [1]): 8.1 nM | PBMC 10 μM (% control) (P2X7 [2]): −50.8 % control | IC50 (rat P2X7): 9.5 nM | Ki (P2X7 [3]): 10 nM

O=C(c1cccc(C(F)(F)F)c1Cl)N1CCc2c(nnn2-c2ccn[nH]2)C1 [Example 68, 5-{[2-Chloro-3-(trifluoromethyl)phenyl]carbonyl}-1-(1H-pyrazol-5-yl)-4,5,6,7-tetrahydro-1H-[1,2,3]triazolo[4,5-c]pyridine]
IC50 (P2X7 [1]): 16.9 nM | PBMC 10 μM (% control) (P2X7 [2]): 12.9 % control | IC50 (rat P2X7): 184 nM | Ki (P2X7 [3]): 18.2 nM

O=C(c1ccc(Cl)cc1F)N1CCc2c(nnn2-c2cnccn2)C1 [Example 272, (4-chloro-2-fluorophenyl)(1-(pyrazin-2-yl)-6,7-dihydro-1H-[1,2,3]triazolo[4,5-c]pyridin-5(4H)-yl)methanone]
IC50 (P2X7 [1]): 622 nM | PBMC 10 μM (% control) (P2X7 [2]): −7.6 % control | IC50 (rat P2X7): 3020 nM | Ki (P2X7 [3]): 100 nM

COc1cccnc1-n1nnc2c1CCN(C(=O)c1cccc(C(F)(F)F)c1Cl)C2C (stereo not drawn) [Example 260, (2-Chloro-3-(trifluoromethyl)phenyl)(1-(3-methoxypyridin-2-yl)-4-methyl-6,7-dihydro-1H-[1,2,3]triazolo[4,5-c]pyridin-5(4H)-yl)methanone]
IC50 (P2X7 [1]): 27 nM | PBMC 10 μM (% control) (P2X7 [2]): 1.4 % control | IC50 (rat P2X7): 6930 nM | Ki (P2X7 [3]): 35.5 nM

CC1c2nnn(-c3cnccn3)c2CCN1C(=O)c1ccc(Cl)cc1F (stereo not drawn) [Example 274, (4-chloro-2-fluorophenyl)(4-methyl-1-(pyrazin-2-yl)-6,7-dihydro-1H-[1,2,3]triazolo[4,5-c]pyridin-5(4H)-yl)methanone]
IC50 (P2X7 [1]): 74.5 nM | PBMC 10 μM (% control) (P2X7 [2]): −4.8 % control | IC50 (rat P2X7): 1880 nM | Ki (P2X7 [3]): 41.7 nM

Cc1ccc(-n2nnc3c2CCN(C(=O)c2cccc(Cl)c2Cl)C3C)nc1 (stereo not drawn) [Example 336, (2,3-dichlorophenyl)(4-methyl-1-(5-methylpyridin-2-yl)-6,7-dihydro-1H-[1,2,3]triazolo[4,5-c]pyridin-5(4H)-yl)methanone]
IC50 (P2X7 [1]): 289 nM | PBMC 10 μM (% control) (P2X7 [2]): −0.5 % control | IC50 (rat P2X7): 2160 nM | Ki (P2X7 [3]): 372 nM

O=C(c1cccc(Cl)c1Cl)N1CCc2c(nc(C(F)(F)F)n2-c2ccccc2)C1 [Example 58, 5-[(2,3-Dichlorophenyl)carbonyl]-1-phenyl-2-(trifluoromethyl)-4,5,6,7-tetrahydro-1H-imidazo[4,5-c]pyridine]
IC50 (P2X7 [1]): 10.7 nM | PBMC 10 μM (% control) (P2X7 [2]): −2.0 % control | IC50 (rat P2X7): 766 nM | Ki (P2X7 [3]): 126 nM

Cc1cccc(-n2nnc3c2CCN(C(=O)c2cccc(C(F)(F)F)c2Cl)[C@H]3C)n1 (single isomer, unassigned) [Example 227, (S*)-(2-chloro-3-(trifluoromethyl)phenyl)(4-methyl-1-(6-methylpyridin-2-yl)-6,7-dihydro-1H-[1,2,3]triazolo[4,5-c]pyridin-5(4H)-yl)methanone]
IC50 (P2X7 [1]): 7.2 nM | PBMC 10 μM (% control) (P2X7 [2]): −0.4 % control | IC50 (rat P2X7): 10.2 nM | Ki (P2X7 [3]): 20 nM

CCOC(=O)C1c2ncn(-c3ccccn3)c2CCN1C(=O)c1cccc(Cl)c1Cl (stereo not drawn) [Example 25, Ethyl 5-(2,3-dichlorobenzoyl)-1-(pyridin-2-yl)-4,5,6,7-tetrahydro-1H-imidazo[4,5-c]pyridine-4-carboxylate]
IC50 (P2X7 [1]): 111 nM | PBMC 1 μM (% control) (P2X7 [2]): 9.7 % control | IC50 (rat P2X7): 3270 nM | Ki (P2X7 [3]): 74.1 nM

CN(C)CC1c2ncn(-c3ccccn3)c2CCN1C(=O)c1cccc(C(F)(F)F)c1Cl (stereo not drawn) [Example 31, 1-(5-{[2-Chloro-3-(trifluoromethyl)phenyl]carbonyl}-1-pyridin-2-yl-4,5,6,7-tetrahydro-1H-imidazo[4,5-c]pyridin-4-yl)-N,N-dimethylmethanamine]
IC50 (P2X7 [1]): 156 nM | PBMC 1 μM (% control) (P2X7 [2]): 50.8 % control | IC50 (rat P2X7): 107 nM | Ki (P2X7 [3]): 316 nM

Cc1c(C(=O)N2CCc3c(nnn3-c3cnccn3)C2)cccc1C(F)(F)F [Example 276, (2-methyl-3-(trifluoromethyl)phenyl)(1-(pyrazin-2-yl)-6,7-dihydro-1H-[1,2,3]triazolo[4,5-c]pyridin-5(4H)-yl)methanone]
IC50 (P2X7 [1]): 6.4 nM | PBMC 10 μM (% control) (P2X7 [2]): −0.9 % control | IC50 (rat P2X7): 869 nM | Ki (P2X7 [3]): 5.8 nM

CN(C)C(=O)C1c2ncn(-c3ccccn3)c2CCN1C(=O)c1cccc(C(F)(F)F)c1Cl (stereo not drawn) [Example 34, 5-{[2-Chloro-3-(trifluoromethyl)phenyl]carbonyl}-N,N-dimethyl-1-pyridin-2-yl-4,5,6,7-tetrahydro-1H-imidazo[4,5-c]pyridine-4-carboxamide]
IC50 (P2X7 [1]): 158 nM | PBMC 1 μM (% control) (P2X7 [2]): 29.8 % control | IC50 (rat P2X7): 158 nM | Ki (P2X7 [3]): 631 nM

C[C@@H]1c2nnn(-c3ncccn3)c2CCN1C(=O)c1cccc(C(F)(F)F)c1F (single isomer, unassigned) [Example 271, (R*)-(2-fluoro-3-(trifluoromethyl)phenyl)(4-methyl-1-(pyrimidin-2-yl)-6,7-dihydro-1H-[1,2,3]triazolo[4,5-c]pyridin-5(4H)-yl)methanone]
IC50 (P2X7 [1]): 3.3 nM | PBMC 10 μM (% control) (P2X7 [2]): −3.7 % control | IC50 (rat P2X7): 11.1 nM | Ki (P2X7 [3]): 5.9 nM

CC1Cc2c(-c3ccnn3C)nn(C)c2CN1C(=O)c1cccc(C(F)(F)F)c1Cl (stereo not drawn) [Example 266, (2-chloro-3-(trifluoromethyl)phenyl)(1,5-dimethyl-3-(1-methyl-1H-pyrazol-5-yl)-4,5-dihydro-1H-pyrazolo[3,4-c]pyridin-6(7H)-yl)methanone]
IC50 (P2X7 [1]): 12.7 nM | PBMC 10 μM (% control) (P2X7 [2]): 5.8 % control | IC50 (rat P2X7): 12.6 nM | Ki (P2X7 [3]): 20 nM

O=C(c1cccc(C(F)(F)F)c1Cl)N1C=Cc2c(ncn2-c2cnccn2)C1 [Example 54, 5-{[2-Chloro-3-(trifluoromethyl)phenyl]carbonyl}-1-pyrazin-2-yl-4,5-dihydro-1H-imidazo[4,5-c]pyridine]
IC50 (P2X7 [1]): 198 nM | PBMC 1 μM (% control) (P2X7 [2]): 8.6 % control | IC50 (rat P2X7): 4110 nM | Ki (P2X7 [3]): 43.7 nM

O=C(c1cccc(C(F)(F)F)c1Cl)N1CCc2c(ncn2-c2ccccc2)C1 [Example 2, (2-Chloro-3-(trifluoromethyl)phenyl)(1-phenyl-6,7-dihydro-1H-imidazo[4,5-c]pyridin-5(4H)-yl)methanone]
IC50 (P2X7 [1]): 18.4 nM | PBMC 1 μM (% control) (P2X7 [2]): 7.9 % control | IC50 (rat P2X7): 1940 nM | Ki (P2X7 [3]): 87.1 nM

Cn1nc2c(c1-c1ccccn1)CCN(C(=O)c1cccc(C(F)(F)F)c1Cl)C2 [Example 92, 6-{[2-Chloro-3-(trifluoromethyl)phenyl]carbonyl}-2-methyl-3-pyridin-2-yl-4,5,6,7-tetrahydro-2H-pyrazolo[3,4-c]pyridine]
IC50 (P2X7 [1]): 5.4 nM | PBMC 1 μM (% control) (P2X7 [2]): 2.8 % control | IC50 (rat P2X7): 440 nM | Ki (P2X7 [3]): 26.3 nM
